Assay results from patent publication US20070213400A1, “ALCOHOL-METABOLISM ENHANCING COMPOSITION AND INGESTA CONTAINING THE SAME” (Taiyokagaku Co., Ltd., priority 2004, published 2007).

Legend:
[1] = Ethanol concentration in the blood after ingestion of ethanol (ADH method); assay type: in vivo, CDF1 male mice; conditions: mice; for Ethanol concentration in the blood, Mean: ethanol 3.0 g/kg oral, theanine 100 mg/kg
Description: (§1) Ethanol was ingested to CDF1 male mice 3.0 g/weight by kg by oral administration. Theanine was ingested to the abdominal cavity of each mouse once before ingestion of ethanol. Concentration of ethanol in the blood and concentration of lipid peroxide in the liver were measured. GSH concentration was also measured. Furthermore, alcohol dehydrogenase, aldehyde dehydrogenase and enzyme activity of […] were also measured.
The concentration of ethanol in the blood was measured by the following ADH method. 0.1 mL of blood was added to 0.8 mL of 0.33 N perchloric acid. After execution of a vortex process, a centrifugal process was carried out under the condition of 1200 g for 5 minutes. 0.1 mL of supernatant was mixed with 0.1 mL of buffer liquid containing […] of sodium phosphate/semicarbazide buffer liquid (pH8.7) and 0.48 mM of NAD. 0.02 mL of ADH (≧32 IU/mL) was further added to the mixture and incubated at 37° C. for 25 minutes. Thereafter, absorbance was measured at 340 nm. An unknown sample concentration was calculated by the comparison of ethanol concentration with known standard sample data.

[2] = test system: lipid peroxide in the liver; experiment: Lipid peroxide concentration in the liver after ingestion of ethanol (TBA fluorometry); assay type: in vivo, CDF1 male mice; conditions: mouse liver; for Lipid peroxide concentration, Mean: ethanol 3.0 g/kg oral, theanine
Description: as §1
(§2) The lipid peroxide concentration in the liver was measured in the following method (TBA fluorometry). 0.1 mL of liver sample (2% homogenate in physiological salt solution) was added with 0.5 mL of 3% SDS, 1.5 mL of 2.0 M acetic acid buffer liquid (pH3.6), 1.5 mL of 0.8% thiobarbituric acid and 0.4 mL of purified water so that a total amount was 4.0 mL. In a standard sample, 20 μL of 50 μmol/L malondialdehyde (MDA) was added instead of the above liver sample and 0.48 purified water was added. The solution was heat-treated in boiling water for 75 minutes and thereafter, cooled for 5 minutes. 1.0 mL of 0.2 N chloride and 5.0 mL of n-butanol were mixed to the cooled substance and thereafter, shaken for 30 seconds. 1200 g of substance was centrifugally processed for 15 minutes. Supernatant was sampled and fluorometry (excitation wavelength: 515 nm; and fluorescent wavelength: 553 nm) was carried out. The unknown sample was calculated using calibration curve.

[3] = test system: GSH concentration in the liver; experiment: GSH concentration in the liver after ingestion of ethanol; assay type: in vivo, CDF1 male mice; conditions: mouse liver, % of normal state
Description: as §1
(§3) The GSH concentration in the liver was measured by the following method (HiSSIN-Hilf). 5% homogenate of the liver or heart was prepared in a 0.1 M sodium phosphate-0.005 M EDTA buffer liquid (pH 8.0) using a potter type Teflon homogenizer while being iced. 0.25 mL of 25% metaphosphoric acid was added to 0.75 mL of homogenate liquid and mixed well. 10000 g of substance was centrifugally processed for 30 minutes. Thereafter, supernatant was sampled and diluted by 50 times with 0.1 M sodium phosphate-0.005 M EDTA buffer liquid (pH 8.0). To 0.20 mL of the diluted liquid was added 3.6 mL of 0.1 M sodium phosphate-0.005 M EDTA buffer liquid (pH 8.0) and 0.20 mL of 0.1% o-phthalaldehyde (OPT) -methanol liquid. The mixture was left at a room temperature for 5 minutes and thereafter, the fluorometry (excitation wavelength: 350 nm; and fluorescent wavelength: 420 nm) was carried out. The unknown sample was calculated using calibration curve.

[4] = test system: alcohol dehydrogenase; experiment: Liver alcohol dehydrogenase (ADH) activity after ingestion of ethanol; assay type: in vivo, CDF1 male mice; conditions: mouse liver, 3 hours after ingestion of ethanol
Description: as §1

[5] = test system: cytochrome P2E1 (CYP2E1); experiment: Liver CYP2E1 enzyme activity after ingestion of ethanol (HPLC, para-nitrophenol); assay type: in vivo, CDF1 male mice; conditions: mouse liver, 3 hours after ingestion of ethanol
Description: as §1

[6] = test system: aldehyde dehydrogenase; experiment: Liver aldehyde dehydrogenase (ALDH) activity after ingestion of ethanol; assay type: in vivo, CDF1 male mice; conditions: mouse liver, 3 hours after ingestion of ethanol
Description: as §1

[7] = test system: GPT; experiment: Chronic administration, alcoholic liver injury: GPT in the blood; assay type: in vivo, CDF1 male mice; conditions: mice, ethanol 1.0 or 2.0 g/kg oral twice a day, theanine 100 mg/kg abdominal cavity, ten days (FIG. 6)
Description: (§4) Ethanol was ingested to CDF1 male mice (5 weeks old) 1.0 g/kg-weight or 2.0 g/kg-weight by oral administration twice in a day. Theanine was ingested to the abdominal cavity of each mouse 100 mg/kg-weight. After ingestion of ethanol and theanine for ten days, concentrations of GOT, GPT, and γ-GTP in the blood were measured. Concentrations of lipid peroxide and GSH in the liver were measured.
(§5) The concentrations of GOT and […] in the blood were measured by using the […] C-test WAKO (WAKO Pure Chemical Industries, Ltd). The concentration of γ-GTP was measured by using the γ-GTP C-test WAKO (WAKO Pure Chemical Industries, Ltd) Concentrations of lipid peroxide and GSH in the liver were measured by the method written in Embodiment 1.
The concentration of GPT was measured by the following method. 0.02 mL of serum was added to 0.5 mL of GPT-measuring-substrate-buffer and incubated at 37° C. for 5 minutes. Thereafter, 0.5 mL of coloring reagent was added, incubated at 37° C. for 20 minutes. 2.0 mL of stop solution was added to the mixture. Thereafter absorbance was measured at 555 nm. GPT activity (Karmen unit) in the blood was calculated by the comparison of GPT activity with known standard sample data plot.

[8] = test system: GSH in the liver; experiment: Chronic administration, alcoholic liver injury: GSH in the liver; assay type: in vivo, CDF1 male mice; conditions: mice, ethanol 1.0 or 2.0 g/kg oral twice a day, theanine 100 mg/kg abdominal cavity, ten days (FIG. 7)
Description: as §3

[9] = test system: mice; assay type: in vivo; conditions: oral administration of theanine by 5 g/kg
Description: Theanine used in the invention has a high security. […] Furthermore, theanine is known as a principal component of deliciousness of tea and used as a food additive for use as gustatory. An amount of theanine to be added is not limited under the Food Sanitation Law. Moreover, differing from conventional medical substances, theanine has no adverse side effect. Consequently, the composition of the invention can be used as a safe and effective alcohol-metabolism enhancing composition.

[10] = test system: lipid peroxide in the liver; experiment: Chronic administration, alcoholic liver injury: lipid peroxide in the liver; assay type: in vivo, CDF1 male mice; conditions: mice, ethanol 1.0 or 2.0 g/kg oral twice a day, theanine 100 mg/kg abdominal cavity, ten days
Description: as §2, with “1.0 mL of 0.2 N chloride and 5.0 mL of n-butanol were mixed to the cooled substance and thereafter, shaken for 30 seconds. 1200 g of substance was centrifugally processed for 15 minutes. Supernatant was sampled and fluorometry (excitation wavelength: 515 nm; and fluorescent wavelength: 553 nm) was carried out.” left out
as §4, with “Theanine was ingested to the abdominal cavity of each mouse 100 mg/kg-weight.” left out
as §5

CCO [Ethanol]
Ethanol concentration in the blood, Mean ([1]; time 0 h): 0 mg/mL | Ethanol concentration in the blood, Mean ([1]; time 0.5 h): 0.498 mg/mL | Ethanol concentration in the blood, Mean ([1]; time 1 h): 0.108 mg/mL | Ethanol concentration in the blood, Mean ([1]; time 3 h): 0.022 mg/mL | Lipid peroxide concentration, Mean ([2]; time 0 h): 0.617 mg/mL | Lipid peroxide concentration, Mean ([2]; time 0.5 h): 0.573 mg/mL | Lipid peroxide concentration, Mean ([2]; time 1 h): 0.565 mg/mL | Lipid peroxide concentration, Mean ([2]; time 2 h): 0.580 mg/mL | Lipid peroxide concentration, Mean ([2]; time 3 h): 1.036 mg/mL | Lipid peroxide concentration, Mean ([2]; time 5 h): 0.568 mg/mL | lipid peroxide ([2]; only ethanol ingested, peak value (3 h in Table 2)): 1.036 u mol/g protein | Lipid peroxide concentration (%) of the value in the normal state ([2]; time 0 h): 100% | Lipid peroxide concentration (%) of the value in the normal state ([2]; time 0.5 h): 93% | Lipid peroxide concentration (%) of the value in the normal state ([2]; time 1 h): 92% | Lipid peroxide concentration (%) of the value in the normal state ([2]; time 2 h): 94% | Lipid peroxide concentration (%) of the value in the normal state ([2]; time 3 h): 168% | Lipid peroxide concentration (%) of the value in the normal state ([2]; time 5 h): 92% | GSH concentration (%), Mean ([3]; time 0 h): 100.00% | GSH concentration (%), Mean ([3]; time 0.5 h): 79.84% | GSH concentration (%), Mean ([3]; time 1 h): 78.83% | GSH concentration (%), Mean ([3]; time 2 h): 81.57% | GSH concentration (%), Mean ([3]; time 3 h): 75.96% | GSH concentration (%), Mean ([3]; time 5 h): 65.50% | GSH concentration (%), Mean ([3]; time 5 h, listed as ethanol): 65.5% | ADH activity as compared with control (normal state) [4]: about 123% | ADH activity, Mean [4]: 9.13 μmol/min · mg protein | CYP2E1 activity, Mean [5]: 20.4 nmol/mg protein/min | ALDH activity as compared with control [6]: about 63.5% | ALDH activity, Mean [6]: 5.80 μmol/min · mg protein | GPT concentrations in the blood [7]: increased | GSH concentrations in the liver [8]: decreased

CCNC(=O)CC[C@H](N)C(=O)O [Theanine, theanine]
AUC0-3 hr of blood ethanol reduced by joint use of theanine as compared with only ethanol ([1]; ethanol 3.0 g/kg, theanine 100 mg/kg 30 minutes after ethanol): 76% | Mortality in acute toxicity test [9]: no mice died | GPT concentrations in the blood [7]: increase of the GPT concentrations could be reduced | lipid peroxide in the liver [10]: increase of lipid peroxide in the liver would be reduced | GSH concentrations in the liver [8]: decrease of the GSH could be reduced
